Among the test systems are A549; ACHN; BT-549; COLO 205; DU-145; HOP-62; IGROV-1; LOX IMVI; NCI-H226; SF-268; SF-295; SK-MEL-28; SK-MEL-2; SNB-19; SR; SW-620; UACC-257; UACC-62; EKVX; K562.
Common to all, as to experiment: DTP human tumour cell line panel, 48 h

SMILES strings stand for the structures. Where “and” joins values, the source holds several entries; their conditions need not be identical. Equal entries are not always repeated.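 Interpolation was linear, between the two tested concentrations surrounding the appropriate level; five concentrations were tested over 48 hours in 96-well plates. The concentration for 50% growth inhibition is given as GI50.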 Calls of active or inactive are those of the source. Cut-off read from the data, not from the text of the source: active = GI50 up to about 1.1 µM and inactive = higher.

As a reminder, the GI50 is the concentration that inhibits growth by half. On to `COC(=O)CCc1ccc2c(c1)CCC2`, for which the GI50 in the experiment on A549, in the experiment on ACHN, in the experiment with BT-549, in the experiment with COLO 205, with DU-145 and in the experiment on HOP-62 was > 100 µM (inactive) each time. For the same compound, the GI50 with IGROV-1, in the experiment with LOX IMVI, in the experiment with NCI-H226, in the experiment on SF-268, in the experiment with SF-295 and with SK-MEL-28 was > 100 µM (inactive) throughout. The GI50 in the experiment on SK-MEL-2, with SNB-19, in the experiment on SR, in the experiment with SW-620, in the experiment on UACC-257 and in the experiment with UACC-62 was > 100 µM (inactive) throughout.

As for `Cc1ccc(/C=C2/N/C(=N\N=C/C(O)C(O)C(O)CO)NC2=O)cc1` (stereo not given), the GI50 with A549, with ACHN, in the experiment with BT-549, in the experiment with COLO 205, in the experiment on DU-145 and with EKVX was > 100 µM (inactive) throughout. The GI50 was > 100 µM (inactive) in the experiment with HOP-62; > 100 µM (inactive) in the experiment with IGROV-1; 55.5 µM (inactive) and 47.8 µM (inactive) with K562; > 100 µM (inactive) in the experiment on LOX IMVI; 63.5 µM (inactive) and 66.2 µM (inactive) in the experiment with NCI-H226; > 100 µM (inactive) in the experiment with SF-268. Also, the GI50 in the experiment with SF-295, with SK-MEL-28, in the experiment on SK-MEL-2, in the experiment on SNB-19, with SR and with SW-620 was > 100 µM (inactive) in each case. In addition, the GI50 in the experiment on UACC-257 was > 100 µM (inactive).

For `CC(C)(C)/C(O)=C\c1nc2cc(F)c(F)cc2[nH]c1=O`, the GI50 with ACHN was > 100 µM (inactive); in the experiment with BT-549, > 100 µM (inactive); with COLO 205, > 100 µM (inactive); in the experiment with DU-145, 25.7 µM (inactive); with EKVX, > 100 µM (inactive); in the experiment with HOP-62, > 100 µM (inactive). Besides, the GI50 with IGROV-1, in the experiment with K562, in the experiment on LOX IMVI, in the experiment on NCI-H226, in the experiment on SF-268 and in the experiment with SF-295 was > 100 µM (inactive) in each case. The GI50 in the experiment with SK-MEL-28, with SK-MEL-2, with SNB-19, in the experiment on SR, in the experiment on SW-620 and in the experiment with UACC-257 was > 100 µM (inactive) throughout. For the same compound, the GI50 with UACC-62 is > 100 µM (inactive).

As for `O=c1cc(-c2ccccc2)[nH]c2ccc(N3CCCC3)cc12`, the GI50 with A549 was 0.0555 µM (active); with ACHN, 0.0222 µM (active); in the experiment with BT-549, > 100 µM (inactive); with COLO 205, 0.0196 µM (active); in the experiment on DU-145, 0.0459 µM (active); in the experiment with HOP-62 it was 0.0163 µM (active). In addition, the concentration for 50% growth inhibition (GI50) with IGROV-1 is 0.267 µM (active); in the experiment on K562, < 0.01 µM (active); with LOX IMVI it was < 0.0137 µM (active); in the experiment with NCI-H226, 0.0266 µM (active); with SF-268 it was 0.173 µM (active); in the experiment on SF-295, < 0.01 µM (active). Moreover, the GI50 in the experiment on SK-MEL-28 is 0.0533 µM (active); with SK-MEL-2 it was 0.0484 µM (active); in the experiment on SNB-19, 0.0217 µM (active); in the experiment with SR it was 0.0184 µM (active); with SW-620, < 0.01 µM (active); in the experiment with UACC-257, 30.4 µM (inactive). For the same compound, the GI50 with UACC-62 is < 0.01 µM (active).

The values are drawn from ChEMBL document CHEMBL1201862, “PubChem BioAssay data set” (2004).
